Values after ≈ are worked out from the molar mass of the structure shown. Values joined by “and” are separate entries in the source; they are usually repeats but may differ in a detail not shown here. Identical values can stand only once.
Experiments:
[1] = in vitro
Description: Cytotoxicity of the compounds was determined using an LDH assay kit (Roche, Mannheim, Germany) as described previously. Human monocytic leukemia THP-1 cells (European Collection of Cell Cultures, Salisbury, UK) were exposed for 24 h at 37 °C to various compound concentrations ranging from 0.37 to 30 μM in RPMI 1640 medium. For LDH assays, cells were seeded into 96-well plates (5×10^4 cells/well in 100 μL of culture medium) in triplicate in serum-free RPMI 1640 medium and measurements were taken 24 h after the treatment with the compounds. The maximum concentration of DMSO (Sigma) in the assays never exceeded 0.1 %. […] The median lethal dose values, LC50, were deduced through the production of a dose-response curve. All data from three independent experiments were evaluated using GraphPad Prism 5.00 software.

[2] = tested on: S. aureus ATCC 29213; test: Antistaphylococcal screening, microtitration broth MIC; type: cell-based, Staphylococcus aureus; settings: for MIC: Staphylococcus aureus, ATCC29213, S. aureus ATCC 29213, 24 h, 37 °C; for Antistaphylococcal activity in words: susceptible strain and resistant isolates
Description: (§1) In vitro antistaphylococcal activity of the synthesized compounds was evaluated against three clinical isolates of methicillin-resistant S. aureus: clinical isolate of animal origin, MRSA 63718 (Department of Infectious Diseases and Microbiology, Faculty of Veterinary Medicine, University of Veterinary Sciences Brno, Czech Republic), carrying the mecA gene; and MRSA SA 630 and MRSA SA 3202 [54] (National Institute of Public Health, Prague, Czech Republic), both of human origin. […] All isolates were tested for the presence of the mecA gene encoding methicillin resistance. […] Vancomycin-susceptible methicillin-susceptible S. aureus (VS-MSSA) ATCC 29213, obtained from the American Type Culture Collection, was used as the reference and quality control strain. The minimum inhibitory concentrations (MICs) were evaluated by the microtitration broth method according to the CLSI [58, 59] with some modifications. The compounds were dissolved in DMSO (Sigma, St. Louis, MO, USA) to get a concentration […] and diluted in a microtitration plate in a medium Cation Adjusted Mueller-Hinton (CaMH, Oxoid, Basingstoke, UK) to reach the final concentration of 256-0.0625 μg/mL. The plate was inoculated by the tested microorganisms. The final concentration of bacterial cells was 10^5 for bacteria. […] A drug-free control and a sterility control were included. The plates were incubated for 24 h at 37 °C. […] The experiments were repeated three times.

[3] = tested on: MRSA SA 3202; test: as above; type: cell-based, methicillin-resistant S. aureus; settings: Staphylococcus aureus; MRSA SA 3202, 24 h, 37 °C
Description: as §1

[4] = tested on: MRSA SA 630; test: as above; type: cell-based, methicillin-resistant S. aureus; settings: Staphylococcus aureus; MRSA SA 630, 24 h, 37 °C
Description: as §1

[5] = tested on: MRSA 63718; test: as above; type: cell-based, methicillin-resistant S. aureus; settings: Staphylococcus aureus; MRSA 63718, 24 h, 37 °C
Description: as §1

[6] = tested on: S. aureus ATCC 29213; test: MTT assay (bacterial viability / respiratory activity); type: cell-based, Staphylococcus aureus; settings: S. aureus ATCC 29213, MTT; for S. aureus viability inhibition: at the lowest multiple of MIC with at least 70 % inhibition
Description: Compounds were prepared as previously stated and diluted in CaMH broth for S. aureus to achieve the desired final concentrations. S. aureus bacterial suspension in sterile distilled water at 0.5 McFarland was diluted 1:3. Inocula were added to each well by multi-inoculator. Diluted […] in broth free from inhibiting compounds were used as the growth control. All compounds were prepared in duplicate. Plates were incubated at 37 °C for 24 h for S. aureus. After the incubation period, 10 % well volume of MTT (3-(4,5-dimethylthiazol-2-yl)-2,5-diphenyltetrazolium bromide) reagent (Sigma) was mixed into each well and incubated at 37 °C for 1 h for S. aureus. Then 100 μL of 17 % sodium dodecyl sulphate in 40 % dimethylformamide was added to each well. The plates were read at 570 nm. The absorbance readings from the cells grown in the presence of the tested compounds were compared with uninhibited cell growth to determine the relative percent inhibition. The percent inhibition was determined through the MTT assay. The percent viability is calculated through the comparison of a measured value and that of the uninhibited control: Viability = (OD570E/OD570P)×100, where OD570E is the reading from the compound-exposed cells, while OD570P is the reading from the uninhibited cells (positive control). Cytotoxic potential is determined by a percent viability of <70 % [60, 61].
The MTT assay can be used to assess cell growth by measuring respiration.

[7] = tested on: Human monocytic leukemia THP-1 cells; design: method as in PMID 24075143; settings: tested up to 20 μM, ref [29], read-out: LC50 THP-1; cited from earlier work
[8] = Lipophilicity determination by HPLC (capacity factor k, distribution coefficients DpH); type: physicochemical; settings: for log k: MeOH 72 % / H2O 28 %, C18; for log D6.5: MeOH 72 % / acetate-buffered saline pH 6.5 28 %; for log D7.4: MeOH 72 % / acetate-buffered saline pH 7.4 28 %
Text: An HPLC system Agilent 1200 equipped with a DAD detector (Agilent, Santa Clara, CA, USA) was used. A chromatographic column Symmetry® C18 5 μm, 4.6×250 mm, part No. WAT054275 (Waters Corp., Milford, MA, USA) was used. The HPLC separation process was monitored and evaluated with EZChrom Elite software ver. 3.3.2 [53] (Agilent). Isocratic elution by a mixture of MeOH p.a. (72 %) and H2O-HPLC Mili-Q grade (28 %) as a mobile phase was used for the determination of capacity factor k. Isocratic elution by a mixture of MeOH p.a. (72 %) and acetate-buffered saline (pH 7.4 and pH 6.5) (28 %) as a mobile phase was used for the determination of distribution coefficients expressed as D7.4 and D6.5. The total flow of the column was 1.0 mL/min, the injection volume was 20 μL, the column temperature was 40 °C, and the sample temperature was 10 °C. The detection wavelength of 210 nm was chosen. A KI methanolic solution was used for the determination of the dead times (tD). Retention times (tR) were measured in minutes. The capacity factors k were calculated according to the formula k = (tR−tD)/tD, where tR is the retention time of the solute, and tD is the dead time obtained using an unretained analyte. The distribution coefficients DpH were calculated according to the formula DpH = (tR−tD)/tD. Each experiment was repeated three times.

| SMILES | MIC [2] | MIC [3] | MIC [4] | MIC [5] | Concentration: lowest multiple of MIC with at least 70 % inhibition of viability [6] | log k [8] | log D6.5 [8] | log D7.4 [8] | CC50 at 24 h [1] | S. aureus viability inhibition [6] | CC50 [7] | Antistaphylococcal activity in words [2] |
| --- | --- | --- | --- | --- | --- | --- | --- | --- | --- | --- | --- | --- |
| CC1(C)S[C@@H]2[C@H](NC(=O)[C@H](N)c3ccccc3)C(=O)N2[C@H]1C(=O)O [APC, ampicillin, reference compound] | 5.72 µM (≈ 2 µg/mL) | 45.8 µM (≈ 16 µg/mL) | 45.8 µM (≈ 16 µg/mL) | 45.8 µM (≈ 16 µg/mL) | 8× MIC |  |  |  | 0.8 ± 0.1 µM | 90.0% |  |  |
| CC[C@@]1(O)C(=O)OCc2c1cc1n(c2=O)Cc2cc3ccccc3nc2-1 [CMP, camptothecin, reference compound] |  |  |  |  |  |  |  |  | 0.16 ± 0.07 µM |  |  |  |
| O=C(Nc1ccc(Cl)cc1)c1ccc2ccccc2c1O [Compound 4] | > 859 µM | 107 µM (≈ 31.9 µg/mL) | 429 µM (≈ 128 µg/mL) | > 859 µM |  | 0.8880 | 0.7640 | 0.7501 |  |  | > 20 µM |  |
| O=C(Nc1cc(Cl)ccc1Cl)c1ccc2ccccc2c1O [Compound 7] | 770 µM (≈ 256 µg/mL) | 770 µM (≈ 256 µg/mL) | 770 µM (≈ 256 µg/mL) | 770 µM (≈ 256 µg/mL) |  | 0.6717 | 0.3949 | 0.3938 |  |  |  |  |
| O=C(Nc1cc(Cl)c(Cl)cc1Cl)c1ccc2ccccc2c1O [Compound 11] | 698 µM (≈ 256 µg/mL) | 698 µM (≈ 256 µg/mL) | 698 µM (≈ 256 µg/mL) | 698 µM (≈ 256 µg/mL) |  | 0.6894 | 0.5314 | 0.4864 |  |  |  |  |
| O=C(Nc1c(Cl)cc(Cl)cc1Cl)c1ccc2ccccc2c1O [Compound 12] | 698 µM (≈ 256 µg/mL) | 698 µM (≈ 256 µg/mL) | 698 µM (≈ 256 µg/mL) | 698 µM (≈ 256 µg/mL) |  | 0.8398 | 0.7254 | 0.6825 |  |  |  |  |
| O=C(Nc1cc(Cl)c(Cl)c(Cl)c1)c1ccc2ccccc2c1O [Compound 13, N-(3,4,5-trichlorophenyl)-1-hydroxynaphthalene-2--carboxamide] | 698 µM (≈ 256 µg/mL) | 698 µM (≈ 256 µg/mL) | 698 µM (≈ 256 µg/mL) | 698 µM (≈ 256 µg/mL) |  | 1.2387 | 1.0960 | 1.0561 |  |  |  |  |

Second part, led by results:

| MIC [2] | MIC [3] | MIC [4] | MIC [5] | Concentration: lowest multiple of MIC with at least 70 % inhibition of viability [6] | log k [8] | log D6.5 [8] | log D7.4 [8] | SMILES | CC50 at 24 h [1] | S. aureus viability inhibition [6] | CC50 [7] | Antistaphylococcal activity in words [2] |
| --- | --- | --- | --- | --- | --- | --- | --- | --- | --- | --- | --- | --- |
| > 972 µM | 121 µM (≈ 31.9 µg/mL) | 243 µM (≈ 64 µg/mL) | > 972 µM |  | 0.6084 | 0.5139 | 0.5487 | O=C(Nc1ccccc1)c1ccc2ccccc2c1O [Compound 1] |  |  | > 20 µM |  |
| > 859 µM | > 859 µM | > 859 µM | > 859 µM |  | 0.6900 | 0.5828 | 0.5836 | O=C(Nc1ccccc1Cl)c1ccc2ccccc2c1O [Compound 2] |  |  |  |  |
| > 859 µM | 107 µM (≈ 31.9 µg/mL) | 429 µM (≈ 128 µg/mL) | > 859 µM |  | 0.8556 | 0.7362 | 0.7227 | O=C(Nc1cccc(Cl)c1)c1ccc2ccccc2c1O [Compound 3] |  |  | > 20 µM |  |
| 770 µM (≈ 256 µg/mL) | 770 µM (≈ 256 µg/mL) | 770 µM (≈ 256 µg/mL) | 770 µM (≈ 256 µg/mL) |  | 0.6838 | 0.4371 | 0.3870 | O=C(Nc1cccc(Cl)c1Cl)c1ccc2ccccc2c1O [Compound 5] |  |  |  |  |
| 770 µM (≈ 256 µg/mL) | 770 µM (≈ 256 µg/mL) | 770 µM (≈ 256 µg/mL) | 770 µM (≈ 256 µg/mL) |  | 0.7387 | 0.5168 | 0.4680 | O=C(Nc1ccc(Cl)cc1Cl)c1ccc2ccccc2c1O [Compound 6] |  |  |  |  |
| 48.2 µM (≈ 16 µg/mL) | 48.2 µM (≈ 16 µg/mL) | 48.2 µM (≈ 16 µg/mL) | 48.2 µM (≈ 16 µg/mL) |  | 0.5729 | 0.4516 | 0.4594 | O=C(Nc1c(Cl)cccc1Cl)c1ccc2ccccc2c1O [Compound 8, N-(2,6-dichlorophenyl)-1-hydroxynaphthalene-2-carboxamide] | > 30 µM |  |  | Partial activity |
| 770 µM (≈ 256 µg/mL) | 385 µM (≈ 128 µg/mL) | 96.3 µM (≈ 32 µg/mL) | 770 µM (≈ 256 µg/mL) |  | 0.9304 | 0.9048 | 0.8909 | O=C(Nc1ccc(Cl)c(Cl)c1)c1ccc2ccccc2c1O [Compound 9] |  |  |  |  |
| 0.37 µM (≈ 0.123 µg/mL) | 0.37 µM (≈ 0.123 µg/mL) | 0.37 µM (≈ 0.123 µg/mL) | 0.37 µM (≈ 0.123 µg/mL) | 16 × MIC | 0.9704 | 0.9531 | 0.9306 | O=C(Nc1cc(Cl)cc(Cl)c1)c1ccc2ccccc2c1O [Compound 10, N-(3,5-dichlorophenyl)-1-hydroxynaphthalene-2-carboxamide] | > 30 µM | 96% and 96.5% |  | significant antistaphylococcal activity |
